Results on 2 molecules are retold here after patent US20160025704A1, “METHODS FOR IDENTIFYING NEUROPROTECTIVE PKC ACTIVATORS” (priority 2013, published 2016).

In one data set the test system is alpha-secretase. Conditions: human fibroblasts; Etcheberrigaray et al. 2004; cited from earlier work.
A short description of data set [1]: Bryostatin levels in plasma and brain after intravenous injection. The data set is classed as in vivo, mice. The method, then: Measurements of bryostatin were analyzed at different time points subsequent to administration of a high dose of bryostatin (114 μg/m2). […] The plasma/brain ratio can be greater than 30.
Protocol: Male C57BL/6M mice (15-20 g, Charles River) were acclimatized for 7-8 days in a non-enriched environment, three mice per cage. Bryostatin (Tocris) was dissolved in DMSO, diluted into 0.9% saline, and injected into the tail vein at doses of 10 and 15 μg/m2. After a fixed period, the mice were anesthetized with CO2 and the brain was frozen on dry ice. Blood was mixed with 0.2 ml 1 mM EDTA in PBS, centrifuged at 100 g for 30 min, and plasma was frozen on dry ice. In some experiments, blood lymphocyte fractions were collected using Ficoll-Paque Plus reagent using the procedure recommended by the manufacturer. All animal procedures were approved by the institutional IACUC.
Bryostatin was injected into the tail vein of C57BL/6N mice at 10 and 15 μg/m2 (equivalent to 3.50 and 5.25 μg/kg), and brain PKC-ε concentration was measured using Western blots. Brain PKC-ε activation was biphasic, peaking at 0.5 h and slowly declined toward resting levels, even though bryostatin levels continued to increase. This is consistent with the short-lived activation of PKC established previously. […] The bryostatin concentration at 0.5 h was 0.029 nM.

Data set [2] can be described thus: Internal toxicity study: Clinical Chemistry Panel & Hematology Panel. It is filed as in vivo. The method, then: Internal tests measuring various biological markers were performed 24 hours after administering a PKC activator (bryostatin, cyclopropanated arachidonic acid, DCPLA, and DHACP6) at 10× the therapeutic dose. The results are shown below in Tables 5-7.

In another data set the test system is Primary human neurons. Description: Synaptogenicity in primary human neurons. It is filed as cell-based. Conditions: 0.27 nM. The method, then:
Protocol: Primary human neurons were treated with either DCPLA-methyl ester (100 nM) or bryostatin-1 (0.27 nM).

For another data set, the system named is HL-60 cells. Conditions: Kraft et al. 1986; cited from earlier work.
In a further data set the test system is HCN-2 cells. Nature of the data set: Synaptogenesis in HCN-2 cells. It is filed as cell-based, human. Conditions: 10 days. The method, then:
FIG. 9 illustrates that activation of PKC-ε induces synaptogenesis in HCN-2 cells. The HCN-2 cell line was derived from cortical tissue removed from a patient undergoing hemispherectomy for intractable seizures associated with Rasmussen's encephalitis. The cells were treated with either DCPLA-methyl ester or bryostatin-1 for 10 days. […] Thus, PKC-ε activation can induce synaptogenesis in both embryonic and adult neuronal cells.

A further data set concerns monomeric Aβ(1-42). Description: Aβ peptide degradation by SH+hNEP cells. It is filed as cell-based, human. Conditions: 1 nM, 2.5 μg monomeric Aβ(1-42), 4 hours. The method, then:
Protocol: Intact SH+hNEP cells were incubated with 2.5 μg of monomeric Aβ(1-42) for 4 hours in the absence or presence of bryostatin (Bryo, 1 nM). Some cells were cotreated with phosphoramidon (PA, 10 μM, a specific neprilysin inhibitor), Ro 32-0432 (Ro, 2 μM, a PKC inhibitor), or PA+Ro in the presence of bryostatin (1 nM) for 4 hours. Aβ peptide was then precipitated from the reactions by 20% trichloroacetic acid and immunoblotted with use of Aβ peptide 1-16 antibody (6E10). Arrow indicates the size of monomeric Aβ peptide (FIG. 18), which is around 4 kDa. Densitometry measurements of developed protein bands on Western blots were made and assigned as relative expression change (Mean+SEM of three independent experiments, **P<0.01, Bryo compared with untreated; #P<0.01, PA, Ro, or PA+Ro compared with Bryo.).

Another data set concerns cerebral ischemia rats. Nature of the data set: Pyramidal cells, BDNF and synapses in dorsal hippocampal CA1 area after cerebral ischemia. The data set is classed as in vivo. Conditions: 15 μg/m^2 tail vein for 5 weeks beginning 24 hours after ischemic/hypoxic event. The method, then:
Protocol: Rats were administered bryostatin-1 (15 μg/m^2, tail vein injection) for 5 weeks beginning 24 hours after the end of the ischemic/hypoxic event. […] Non-treated groups received the same vehicle volumes, mechanism of delivery, and frequency of administration as the treated groups.

For another data set, the system named is 5XFAD mice. Nature of the data set: Synaptic loss in hippocampal CA1 area of 5XFAD mice. It is filed as in vivo. The method, then:
Protocol: DCPLA (20 mg/m^2, tail vein injection) was administered to 2-month old 5XFAD mice twice a week. At five months old, hippocampal slices from the brains of the mice were processed for immunohistochemistry and confocal microscopy analysis. Results are shown for analysis of spinophilin density (A, B), synaptophysin density (A, D) not caused by axonal bouton (synaptophysin granules) (C) and neuronal loss (E, F). […] Non-treated groups (wild-type and transgenic (Tg) mice) received the same vehicle volumes, mechanism of delivery, and frequency of administration as the treated groups.

The mark [3] stands for this setting: i.v. 150 μg/m^2 = 10 × Therapeutic Dose, 24 hours, normalized to Control.
Where [4] appears, read: i.v. 150 μg/m^2 = 10 × Therapeutic Dose, 24 hours, normalized to Normal.

Regarding `CCC/C=C/C=C/C(=O)O[C@H]1/C(=C/C(=O)OC)C[C@H]2C[C@H]([C@@H](C)O)OC(=O)C[C@H](O)C[C@@H]3C[C@H](OC(C)=O)C(C)(C)[C@](O)(C[C@@H]4C/C(=C/C(=O)OC)C[C@H](/C=C/C(C)(C)[C@]1(O)O2)O4)O3` [Bryostatin, bryostatin-1], the “activation of alpha-secretase (sAPP generation)” value with alpha-secretase is “activate the alpha-secretase”. Further, the “brain bryostatin relative to PKC downregulation” value in data set [1] (FIG. 2, brain versus plasma) is given as “below PKC downregulation”. Further, the plasma/brain ratio result in data set [1] (single intravenous injection, 114 μg/m2, mice) is “greater than 30”. Further, the “half-life in the brain as compared to plasma” value in data set [1] (single intravenous injection, high dose 114 μg/m2, mice) is on record as “extremely long half-life in the brain as compared to in plasma”. In addition, in [1] (tail vein 10 and 15 μg/m2, C57BL/6N mice, 0.5 h), the “bryostatin concentration at 0.5 h” value turned out to be 0.029 nM. Further, the “levels of biological markers as compared to normal levels (toxicity)” value in data set [2] (24 hours after administering 10× the therapeutic dose, summary of Tables 5-7) is “did not demonstrate statistically significant differences in levels of biological markers as compared to normal levels”. In data set [2] (setting [3]), the “ALB (Albumin)” value came out at 91.1 ± 0.8, the “ALP (Alkaline phosphatase)” value is on record as 62.8 ± 10.0, the “ALT (Alanine aminotransferase)” value is on record as 63.6 ± 3.6 and the “AST (Aspartate aminotransferase)” value was determined as 75.2 ± 11.3. Moreover, in data set [2] (setting [3]), the “BUN (Blood urea nitrogen)” value turned out to be 117.0 ± 4.5, the “CA (Calcium)” value came out at 89.2 ± 6.1, the “CO2-LC (Bicarbonate)” value was determined as 91.1 ± 4.2 and the “CREAT (Creatinine)” value was found to be 80.7 ± 3.5. Also, in [2] (setting [3]), the “GLU (Glucose)” value stood at 77.6 ± 8.4, the “K (Potassium)” value worked out at 101.0 ± 3.6, the “NA (Sodium)” value worked out at 94.1 ± 1.9 and the “TBILI (Total bilirubin)” value is 78.2 ± 13.0. The “TPROT (Total protein)” value in data set [2] (setting [3]) turned out to be 91.3 ± 2.8. In data set [2] (setting [4]), the “BA (Basophils)” value is on record as 300.0 ± 200.0, the “EO (Eosinophils)” value amounted to 375.0 ± 250.0, the “HCT (Hematocrit)” value worked out at 97.3 ± 21.9 and the “Hb (Hemoglobin)” value amounted to 83.4 ± 19.5. In addition, in data set [2] (setting [4]), the “LY (Lymphocytes)” value is 134.4 ± 55.1, the “MCH (Mean corpuscular hemoglobin)” value was found to be 86.7 ± 4.9, the “MCHC (Mean corpuscular hemoglobin concentration)” value is 85.1 ± 2.8 and the “MCV (Mean corpuscular volume)” value worked out at 101.8 ± 2.8. For the same molecule, in data set [2] (setting [4]), the “MO (Monocytes)” value was 133.3 ± 50.0, the “MPV (Mean platelet volume)” value was determined as 96.2 ± 2.4, the “NE (Neutrophils)” value was determined as 144.8 ± 55.1 and the “PLT (Platelet count)” value is reported as 109.4 ± 43.9. Moreover, in [2] (setting [4]), the “RBC (Red Blood Cells)” value is recorded as 95.3 ± 20.0, the “RDW (Red cell distribution width)” value came to 106.8 ± 6.2 and the “WBC (White blood cells)” value is 142.3 ± 57.3. Further, in the data set with Primary human neurons (30 days), the “co-localized staining of PSD-95 and synaptophysin in puncta (number of synapses)” value is “an increase in co-localized staining of PSD-95 and synaptophysin in puncta”. Besides, the “survival, neuritic branching and connections” value in the data set on Primary human neurons (40 days) was “improved survival with increased neuritic branching and connections”. Also, in the data set with HL-60 cells, the “phorbol ester-induced differentiation of HL-60 cells” value was “block phorbol ester-induced differentiation of HL-60 cells”. The “differentiation, neuronal branching and punctate colocalization of PSD-95 and synaptophysin” value with HCN-2 cells is “significant differentiation with neuronal branching and increased punctate colocalization of PSD-95 and synaptophysin”. In addition, in the data set with monomeric Aβ(1-42), the Aβ peptide degradation result is given as “induces Aβ peptide degradation through neprilysin activation”. Also, in the data set with cerebral ischemia rats, the “immunofluorescence intensity of BDNF” value is reported as “induced an increase in the immunofluorescence intensity of brain-derived neurotrophic factor (BDNF)”; the “loss of dendritic spines and synapses” value is “protected the loss of dendritic spines and synapses”. Moreover, the neuronal loss result in the data set on cerebral ischemia rats (9 days after last dose) is given as “prevented neuronal loss”.

Consider `CCCCCC1CC1CC1CC1CCCCCCCC(=O)O` (centres unmarked) [DCPLA, 8-[2-(2-pentylcyclopropyl)methyl]-cyclopropaneoctanoic acid], for which, in the data set on 5XFAD mice (20 mg/m^2 tail vein twice a week from 2 months old, analysis at five months), the “mushroom spine shape dendritic spines and synapses” value is “protected the decrease in mushroom spine shape dendritic spines and synapses”. Also, the “synaptic loss in hippocampal CA1 area” value in the data set on 5XFAD mice (5XFAD mice at 5 months old (FIG. 20)) is “prevents synaptic loss”.
